Test results as given in patent US20240269129A1, “GLYCOGEN SYNTHASE KINASE 3 (GSK3) INHIBITORS FOR TREATING CTNNB1 SYNDROME” (Trustees of Tufts College, priority 2021, published 2024).
Entries after “also recorded” stand apart in the source; their conditions may differ.

Tests used:
[1] = system: CTNNB1 heterozygous iPSCs; assay: β-catenin and DKK1 protein levels in CTNNB1 heterozygous iPSCs, pilot dose-response, quantitative immunoblotting; type: cell-based, human
Source text: FIG. 14. FIG. 1. GSK3α,β inhibitors increase β-cat protein levels in (a) human CTNNB1 heterozygous glutamatergic neurons treated with BRD0320, relative to vehicle-treated het neurons, and (b) CTNNB1 het iPSCs treated with BRD0320 and LY2090314 at the indicated concentrations. Wnt target, DKK1 protein levels show similar increases to β-cat. Histograms showing comparison to (a) WT neuron levels set as 1 and (b) vehicle-treated het iPSC levels set as 1. LY2090314 increases β-cat protein levels at 10× lower concentration relative to BRD0320.
A human pluripotent stem cell line (iPSC) that lacks any pathogenic variants was made heterozygous for CTNNB1 via CRISPR-Cas9 gene editing of one allele. A premature termination (PTC+1) frameshift was introduced based on a CTNNB1 syndrome patient mutation. Haploinsufficiency was confirmed. The iPSCs were differentiated to cortical glutamatergic neurons by transfection with the transcription factor human neurogenin 2. […] As shown in FIG. 14 (a), beta-catenin protein levels were measured 24 hrs later by quantitative immunoblotting in the GSK3 inhibitor treated CTNNB1 heterozygous neurons, relative to vehicle-treated heterozygous neurons and wildtype neurons.
Beta-catenin protein levels were measured 24 hrs later by quantitative immunoblotting in the GSK3 inhibitor treated CTNNB1 heterozygous iPSCs, relative to vehicle-treated heterozygous iPSCs.

GSK3α = GSK3α (Homo sapiens, UniProt P49840); assay: GSK3α inhibition, motility-shift microfluidic assay (Caliper) at Km of ATP; type: biochemical
GSK3α, sequence (P49840 whole entry): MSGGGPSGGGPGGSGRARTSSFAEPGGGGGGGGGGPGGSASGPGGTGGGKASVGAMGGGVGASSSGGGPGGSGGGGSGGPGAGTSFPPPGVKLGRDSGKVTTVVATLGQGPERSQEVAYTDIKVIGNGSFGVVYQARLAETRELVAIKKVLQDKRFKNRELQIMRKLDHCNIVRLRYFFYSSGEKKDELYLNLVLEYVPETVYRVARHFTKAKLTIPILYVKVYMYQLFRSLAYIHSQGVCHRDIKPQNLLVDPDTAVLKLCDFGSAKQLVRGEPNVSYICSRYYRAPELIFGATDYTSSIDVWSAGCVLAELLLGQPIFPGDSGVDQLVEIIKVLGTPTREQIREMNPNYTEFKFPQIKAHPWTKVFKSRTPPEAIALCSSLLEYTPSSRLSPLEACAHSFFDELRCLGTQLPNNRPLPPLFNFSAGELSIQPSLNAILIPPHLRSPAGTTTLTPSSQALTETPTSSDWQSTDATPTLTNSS
Description: FIG. 12. […] (a) General synthetic scheme for synthesis of the pyrazolo-tetrahydroquinolinone scaffold. (b) IC50 GSK3α and GSK3β values for inhibition were determined at Km of ATP in a motility-shift microfluidic assay (Caliper, MA) measuring phosphorylation of a synthetic substrate. Values are average of three or more experiments. Data are shown as IC50 values in μM±standard deviation. Compounds were tested in duplicate in a 12-point dose curve with 3-fold dilution starting at 33.3 μM. […] Each inhibitor was screened against 311 kinases at a 10 μM concentration.

[2] = system: β-catenin heterozygous mice; assay: Contextual fear conditioning (learning) in β-catenin heterozygous mice; type: in vivo, mouse; settings: 30 mg/kg doses, young adult βcatHet mice
Description: FIG. 2. […] Classic spatial learning task that pairs association of a particular context with a mild foot shock; freezing in the context is measured as an indicator of learning; n=26 control, 24 BcatHet; p<0.0001 Repeated Measure ANOVA; **p<0.01, ***p<0.001 multiple comparison t-test.
(§1) Drug treatments using small molecule GSK3α and GSK3β inhibitors were tested in vivo, for safe and effective amelioration of the phenotypes by assaying β-catenin protein levels, learning and motor skills effects of drug vs. vehicle on CTNNB1 heterozygote mice and control littermates. In an example, a study includes administering the small molecule GSK3 inhibitor in sequential daily doses to the βcatHet mice. The daily doses can be administered, for example, for five days, or four days, or any other number of days. At some time after the last dose, such as 1 hour, the grip strength test can be administered. Additionally, the contextual fear conditioning can be performed. Sometime later, such as 1 day later, the contextual fear conditioning tests can be performed.
(§2) Mice were administered 30 mg/kg doses of the respective compounds in the present Example. Samples of the brain and muscle from control mice, βcatHet mice (untreated), and βcatHet mice (treated) were tested for levels of β-catenin.

[3] = system: β-catenin heterozygous mice; assay: Muscle grip strength test in β-catenin heterozygous mice; type: in vivo, mouse; settings: 30 mg/kg doses, young adult βcatHet mice
Description: as §1, §2

GSK3β = GSK3β (Homo sapiens, UniProt P49841); assay: GSK3β inhibition, motility-shift microfluidic assay (Caliper) at Km of ATP; type: biochemical; settings: for IC50: at Km of ATP
GSK3β, sequence (P49841 whole entry): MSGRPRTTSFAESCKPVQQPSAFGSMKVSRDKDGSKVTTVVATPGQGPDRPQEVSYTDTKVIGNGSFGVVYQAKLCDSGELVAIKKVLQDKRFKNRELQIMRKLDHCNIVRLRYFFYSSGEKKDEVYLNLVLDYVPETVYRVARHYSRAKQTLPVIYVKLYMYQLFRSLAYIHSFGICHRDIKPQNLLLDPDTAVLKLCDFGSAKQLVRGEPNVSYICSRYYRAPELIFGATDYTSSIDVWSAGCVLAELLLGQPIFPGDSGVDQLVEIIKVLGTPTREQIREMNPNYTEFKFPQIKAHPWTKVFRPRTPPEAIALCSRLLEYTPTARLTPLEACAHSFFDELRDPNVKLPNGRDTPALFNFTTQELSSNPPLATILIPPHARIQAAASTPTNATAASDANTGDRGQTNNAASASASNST
Description: FIG. 12. Design and characterization of first paralog selective inhibitors of GSK3α and GSK3β. (a) General synthetic scheme for synthesis of the pyrazolo-tetrahydroquinolinone scaffold. (b) IC50 GSK3α and GSK3β values for inhibition were determined at Km of ATP in a motility-shift microfluidic assay (Caliper, MA) measuring phosphorylation of a synthetic substrate. Values are average of three or more experiments. Data are shown as IC50 values in μM±standard deviation. Compounds were tested in duplicate in a 12-point dose curve with 3-fold dilution starting at 33.3 μM. […] Each inhibitor was screened against 311 kinases at a 10 μM concentration. Kinases with >50% inhibition are depicted (percentage inhibition proportional to size of red dot).
Structure-based design has been aimed towards maximizing steric requirement at the R position and the corresponding differences within the selectivity pockets of GSK3α and GSK3β. […] These modifications and increased binding affinities were tolerant of simple substitutions on the phenyl ring (cf. BRD0320).

β-catenin protein levels = β-catenin protein levels in brain and skeletal muscle of treated β-catenin heterozygous mice, quantitative immunoblotting; type: in vivo, mouse; settings: 30 mg/kg doses, young adult βcatHet mice
Description: as §1, §2

| Compound | learning (contextual fear conditioning) [2] | muscle grip strength [3] | IC50 (GSK3β) [nM] | further results |
| --- | --- | --- | --- | --- |
| O=C1NC(=O)C(c2cnc3ccccn23)=C1c1cn2c3c(cc(F)cc13)CN(C(=O)N1CCCCC1)CC2 [LY2090314, 3-(9-fluoro-2-(piperidine-1-carbonyl)-1,2,3,4-tetrahydro-[1,4]diazepino[6,7,1-hi]indol-7-yl)-4-(imidazo[1,2-a]pyridin-3-yl)-1H-pyrrole-2,5-dione] |  |  |  | β-cat protein levels in CTNNB1 het iPSCs relative to vehicle-treated het iPSCs ([1]; BRD0320 10 μM, 30 μM, LY2090314 0.1 μM, 0.3 μM, 24 hrs): increase; concentration that increases β-cat protein levels, relative to BRD0320 ([1]; CTNNB1 het iPSCs): 10 × lower |
| CC1(C)CC(=O)C2=C(C1)Nc1n[nH]c(C3CC3)c1[C@]2(C)c1ccccc1 [BRD0209] |  |  |  | potency for the two paralogs GSK3α and GSK3β (GSK3α): Equipotency |
| CC[C@@]1(c2ccccc2)C2=C(CC(C)(C)CC2=O)Nc2[nH]ncc21 [BRD0705] | did not display a significant trend to improvements; also recorded: slight trend (not significant) toward improvements | did not display a significant trend to improvements; also recorded: slight trend (not significant) toward improvements | 515 |  |
| CC(C)(C)Cc1[nH]nc2c1[C@](C)(c1ccccc1)C1=C(CC(C)(C)CC1=O)N2 [BRD3731] | slight significant improvement | significant increase; also recorded: trend toward improvement | 15 | IC50 (GSK3α; at Km of ATP): 215 nM; selectivity for GSK3β (GSK3β): 14 fold; β-catenin protein levels in β-catenin heterozygous mouse brain and skeletal muscle relative to vehicle treated heterozygote (β-catenin protein levels): significantly increased |
